These results are taken from patent US10752615B2, “Spirocyclic containing compounds and pharmaceutical uses thereof” (GB005, Inc., priority 2016, dated 2020).

One may read the IC50 as the concentration that inhibits the measured activity by half.

One assay addresses TXK (Homo sapiens (Human), UniProt P42681). As to the kind of experiment: Kinase inhibition assay (Nanosyn, microfluidic detection), TXK. In kind it is biochemical. To be noted: 1 mM ATP, 3 hours at 25° C. How it is done: The in vitro kinase assays were performed at Nanosyn (Santa Clara, Calif.) utilizing microfluidic detection technology. The test compounds were serially pre-diluted in DMSO and added, by the acoustic dispensing (Labcyte® 550), directly to 384 well assay plates into 10 uL of a buffer with enzyme (ITK, TXK, BTK or TEC) comprising: 100 mM HEPES, pH7.5, 5 mM MgCl2, 0.1% bovine serum albumin, 1 mM DTT, 0.01% Triton X-100 and the enzyme. Final DMSO concentration was maintained at 1% in all samples, including the controls. The reactions were initiated by addition of ATP (1 mM final concentration) and the fluorescently labeled peptide substrate to a final concentration of 1 uM, and incubated for 3 hours at 25° C. Following incubation, the reactions were quenched by addition of 40 μL of termination buffer (100 mM HEPES, pH7.5, 0.01% Triton X-100, 50 mM EDTA). Terminated plates were analyzed using Caliper LabChip® 3000 microfluidic electrophoresis instrument (Caliper Life Sciences/Perkin Elmer). […] As substrate and product are separated by electrophoresis, two peaks of fluorescence are observed. Change in the relative fluorescence intensity of the substrate and product peaks was the parameter measured, reflecting enzyme activity. In the presence of inhibitor, the ratio between product and substrate is altered: signal of the product decreases, while the signal of the substrate increases. Activity in each test sample was determined as the product to sum ratio (PSR): P/(S+P), where P is the peak height of the product and S is the peak height of the […]. For each compound, enzyme activity was measured at 12 concentrations spaced by 3× dilution intervals. Negative control samples (0%-inhibition in the absence of inhibitor, DMSO only) and positive control samples (100%-inhibition, in the absence of enzyme or in the presence of control inhibitor) were assembled in replicates of four and were used to calculate %-inhibition values in the presence of compounds. Percent inhibition (Pinh) was determined using the following equation: Pinh=(PSR0%−PSRinh)/(PSR0%−PSR100%)*100, where PSRinh is the product sum ratio in the presence of inhibitor, PSR0% is the product sum ratio in the absence of inhibitor and PSR100% is the product sum ratio in 100%-inhibition control samples. To determine IC50 values, the inhibition curves (Pinh versus inhibitor concentration) were fitted by 4 parameter sigmoid dose-response model using XLfit software (IDBS).

The target in a further assay is BTK (Homo sapiens (Human), UniProt Q06187). The experiment in a line: Kinase inhibition assay (Nanosyn, microfluidic detection), BTK. The assay is classed as biochemical. To be noted: 1 mM ATP, 3 hours at 25° C. How it is done: The in vitro kinase assays were performed at Nanosyn (Santa Clara, Calif.) utilizing microfluidic detection technology. The test compounds were serially pre-diluted in DMSO and added, by the acoustic dispensing (Labcyte® 550), directly to 384 well assay plates into 10 uL of a buffer with enzyme (ITK, TXK, BTK or TEC) comprising: 100 mM HEPES, pH7.5, 5 mM MgCl2, 0.1% bovine serum albumin, 1 mM DTT, 0.01% Triton X-100 and the enzyme. Final DMSO concentration was maintained at 1% in all samples, including the controls. The reactions were initiated by addition of ATP (1 mM final concentration) and the fluorescently labeled peptide substrate to a final concentration of 1 uM, and incubated for 3 hours at 25° C. Following incubation, the reactions were quenched by addition of 40 μL of termination buffer (100 mM HEPES, pH7.5, 0.01% Triton X-100, 50 mM EDTA). Terminated plates were analyzed using Caliper LabChip® 3000 microfluidic electrophoresis instrument (Caliper Life Sciences/Perkin Elmer). The enzymatic modification of the peptide substrate (phosphorylation) results in a change of net charge enabling electrophoretic separation of product from substrate. As substrate and product are separated by electrophoresis, two peaks of fluorescence are observed. Change in the relative fluorescence intensity of the substrate and product peaks was the parameter measured, reflecting enzyme activity. In the presence of inhibitor, the ratio between product and substrate is altered: signal of the product decreases, while the signal of the substrate increases. Activity in each test sample was determined as the product to sum ratio (PSR): P/(S+P), where P is the peak height of the product and S is the peak height of the […]. For each compound, enzyme activity was measured at 12 concentrations spaced by 3× dilution intervals. Negative control samples (0%-inhibition in the absence of inhibitor, DMSO only) and positive control samples (100%-inhibition, in the absence of enzyme or in the presence of control inhibitor) were assembled in replicates of four and were used to calculate %-inhibition values in the presence of compounds. Percent inhibition (Pinh) was determined using the following equation: Pinh=(PSR0%−PSRinh)/(PSR0%−PSR100%)*100, where PSRinh is the product sum ratio in the presence of inhibitor, PSR0% is the product sum ratio in the absence of inhibitor and PSR100% is the product sum ratio in 100%-inhibition control samples. To determine IC50 values, the inhibition curves (Pinh versus inhibitor concentration) were fitted by 4 parameter sigmoid dose-response model using XLfit software (IDBS).
Chain of BTK (Q06187 whole entry): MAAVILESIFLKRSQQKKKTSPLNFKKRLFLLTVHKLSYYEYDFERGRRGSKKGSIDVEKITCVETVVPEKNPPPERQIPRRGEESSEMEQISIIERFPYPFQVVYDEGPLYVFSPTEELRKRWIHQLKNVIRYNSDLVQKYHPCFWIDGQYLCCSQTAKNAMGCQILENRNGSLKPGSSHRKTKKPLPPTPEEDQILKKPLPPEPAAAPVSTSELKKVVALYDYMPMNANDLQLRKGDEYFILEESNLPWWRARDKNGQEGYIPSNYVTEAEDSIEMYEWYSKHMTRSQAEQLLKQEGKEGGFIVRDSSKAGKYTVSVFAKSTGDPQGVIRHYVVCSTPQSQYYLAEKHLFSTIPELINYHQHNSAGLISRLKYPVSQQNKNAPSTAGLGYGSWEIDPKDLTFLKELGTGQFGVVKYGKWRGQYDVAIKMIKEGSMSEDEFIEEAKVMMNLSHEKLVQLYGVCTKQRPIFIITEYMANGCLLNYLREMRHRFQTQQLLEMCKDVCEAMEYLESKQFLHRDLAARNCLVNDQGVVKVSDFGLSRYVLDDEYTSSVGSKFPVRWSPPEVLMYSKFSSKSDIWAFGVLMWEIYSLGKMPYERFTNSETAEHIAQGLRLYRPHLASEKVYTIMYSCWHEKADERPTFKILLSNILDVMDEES

Chain of TXK (P42681 whole entry): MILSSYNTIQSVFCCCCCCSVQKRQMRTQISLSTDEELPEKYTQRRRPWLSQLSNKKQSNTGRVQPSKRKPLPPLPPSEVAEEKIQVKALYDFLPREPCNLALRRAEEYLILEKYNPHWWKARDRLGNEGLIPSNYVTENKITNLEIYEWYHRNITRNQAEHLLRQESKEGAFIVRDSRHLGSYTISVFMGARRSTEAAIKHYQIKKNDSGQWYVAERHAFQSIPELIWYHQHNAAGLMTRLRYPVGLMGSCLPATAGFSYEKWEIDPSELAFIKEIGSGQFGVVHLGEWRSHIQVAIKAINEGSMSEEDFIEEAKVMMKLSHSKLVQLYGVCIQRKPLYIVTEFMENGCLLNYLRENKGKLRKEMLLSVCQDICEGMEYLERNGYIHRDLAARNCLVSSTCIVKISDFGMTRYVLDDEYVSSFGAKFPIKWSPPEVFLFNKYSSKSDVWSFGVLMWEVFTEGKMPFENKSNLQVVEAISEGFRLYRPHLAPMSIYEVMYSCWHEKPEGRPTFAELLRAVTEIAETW

As for `C=CC(=O)N1CC[C@]2(C1)C[C@H](n1c(NC(=O)c3ccc(C(F)F)s3)nc3cc(CN[C@H]4CC[C@H](O)CC4)ccc31)C2` [Compound 35], the IC50 was determined as 0.46 nM against TXK and 1.04 nM on BTK.

For `C=CC(=O)N1CC[C@]2(C1)C[C@H](n1c(NC(=O)c3ccc(-c4cnccn4)s3)nc3ccccc31)C2` [Compound 132], the IC50 against TXK amounted to 1.99 nM; against BTK it was 10.3 nM.

For the compound `C=CC(=O)N1CC[C@]2(C1)C[C@H](n1c(NC(=O)c3ccc(-c4cnco4)s3)nc3cc(CN[C@H]4C[C@H](O)C4)ccc31)C2` [Compound 43], the results for the IC50 against TXK and against BTK were 0.32 nM and 0.53 nM, respectively.

Consider `C=CC(=O)N1CC[C@]2(C1)C[C@H](n1c(NC(=O)c3ccc(C)nc3)nc3cc(CN[C@@H](C)C(C)(C)C)ccc31)C2` [Compound 26], for which the values for the IC50 on TXK and at BTK were 0.99 nM and 2.84 nM, respectively.

For the compound `C=CC(=O)N1CC[C@]2(C1)C[C@H](n1c(NC(=O)c3ccc(-c4cnco4)s3)nc3cc(N(C)C(=O)C4CCCCC4)ccc31)C2` [Compound 60], the 50% inhibitory concentration (IC50) at TXK worked out at 0.4 nM; against BTK, 1.15 nM.

Take `C=CC(=O)N1CC[C@]2(C1)C[C@H](n1c(NC(=O)c3ccc(-c4cnco4)s3)nc3cc(CN4CCCC4)ccc31)C2` [Compound 40]: the IC50 came out at 0.72 nM at TXK and 1.16 nM at BTK.

Regarding `C=CC(=O)N1CC[C@]2(C1)C[C@H](n1c(NC(=O)c3ccc(-c4cnco4)s3)nc3ccc(F)cc31)C2` [Compound 58], the IC50 against TXK amounted to 0.29 nM; against BTK, 1.32 nM.

As to `C=CC(=O)N1CC[C@]2(C1)C[C@H](n1c(NC(=O)c3ccc(-c4cnco4)s3)nc3cc(N(C)C(=O)C(C)C)ccc31)C2` [Compound 54], the IC50 was 0.3 nM against TXK and 0.56 nM at BTK.

As for `C=CC(=O)N1CC[C@]2(C1)C[C@H](n1c(NC(=O)c3ccc(-c4cnco4)s3)nc3cc(Cl)ccc31)C2` [Compound 63], the IC50 at TXK turned out to be 0.37 nM; against BTK it was 1.29 nM.

Take `C=CC(=O)N1CC[C@]2(C1)C[C@H](n1c(NC(=O)c3cccc(-c4cnco4)c3)nc3cc(CN[C@@H](C)C(C)(C)C)ccc31)C2` [Compound 38]: the results for the IC50 on TXK and against BTK were 0.67 nM and 4.08 nM, respectively.

Consider `C=CC(=O)N1CC[C@]2(C1)C[C@@H](n1c(NC(=O)c3ccc(-c4cnco4)s3)nc3ccc(CO)cc31)C2` [Compound 78], for which the IC50 was determined as 2.34 nM against TXK and 11.7 nM on BTK.

For `C=CC(=O)N1CC[C@]2(C1)C[C@H](n1c(NC(=O)c3ccc(-c4cncn4C)s3)nc3ccccc31)C2` [Compound 123], the results for the IC50 at TXK and on BTK were 0.49 nM and 5.33 nM, respectively.

Consider `C=CC(=O)N1CC[C@]2(C1)C[C@H](n1c(NC(=O)c3cnc(C(C)C)s3)nc3cc(CN[C@@H](C)C(C)(C)C)ccc31)C2` [Compound 7], for which the IC50 against TXK is 0.6 nM; against BTK it was 2.2 nM.

Take `C=CC(=O)N1CC[C@]2(C1)C[C@H](n1c(NC(=O)c3ccc(-c4ccc(NC)nc4)s3)nc3ccccc31)C2` [Compound 117]: the IC50 against TXK worked out at 4.9 nM; against BTK, 7.43 nM.

For `C=CC(=O)N1CC[C@]2(C1)C[C@H](n1c(NC(=O)c3ccc(C(F)F)s3)nc3cc(CN4CCCC4)ccc31)C2` [Compound 34], the results for the IC50 at TXK and at BTK were 0.45 nM and 1.39 nM, respectively.

Turning to `C=CC(=O)N1CC[C@]2(C1)C[C@H](n1c(NC(=O)c3ccc(-c4ccc(=O)n(C)c4)s3)nc3ccccc31)C2` [Compound 108], the values for the IC50 against TXK and on BTK were 1.02 nM and 10.4 nM, respectively.

In the case of `C=CC(=O)N1CC[C@]2(C1)C[C@H](n1c(NC(=O)c3ccc(-c4nnc(C)o4)s3)nc3ccccc31)C2` [Compound 94], the IC50 against TXK is 0.82 nM; against BTK, 1.38 nM.

For the compound `C=CC(=O)N1CC[C@]2(C1)C[C@H](n1c(NC(=O)c3ccn(C)c(=O)c3)nc3ccccc31)C2` [Compound 84], the values for the IC50 on TXK and against BTK were 19.8 nM and 65.3 nM, respectively.

With `C=CC(=O)N1CC2(CC(n3c(NC(=O)c4ccc(C(F)F)s4)nc4cc(CN[C@@H](C)C(C)(C)C)ccc43)C2)C1` [Compound 1], the IC50 worked out at 52.6 nM at TXK and 378 nM on BTK.

As to `C=CC(=O)N1CC[C@]2(C1)C[C@H](n1c(NC(=O)c3ccncc3)nc3cc(CN[C@@H](C)C(C)(C)C)ccc31)C2` [Compound 20], the IC50 turned out to be 1.84 nM against TXK and 4.52 nM against BTK.

As to `C=CC(=O)N1CC[C@]2(C1)C[C@H](n1c(NC(=O)c3ccc(-c4ccnc(C)c4)s3)nc3ccccc31)C2` [Compound 147], the IC50 was found to be 0.21 nM at TXK and 0.41 nM at BTK.

Consider `C=CC(=O)N1CC[C@]2(C1)C[C@H](n1c(NC(=O)c3ccc(-c4ccc(F)nc4)s3)nc3ccccc31)C2` [Compound 126], for which the IC50 at TXK turned out to be 0.8 nM; against BTK it was 9.21 nM.

`C=CC(=O)N1CC[C@]2(C1)C[C@H](n1c(NC(=O)c3ccc(-c4cnco4)s3)nc3cc(N(C)C(C)=O)ccc31)C2` [Compound 53]: the results for the IC50 against TXK and at BTK were 0.39 nM and 0.64 nM, respectively.

With `C=CC(=O)N1CC[C@]2(C1)C[C@H](n1c(NC(=O)c3ccc(-c4ccccn4)s3)nc3ccccc31)C2` [Compound 74], the figures for the IC50 on TXK and on BTK were 1.62 nM and 25.8 nM, respectively.

Turning to `C=CC(=O)N1CC[C@]2(C1)C[C@H](n1c(NC(=O)c3ccc(-c4ccnnc4)s3)nc3ccccc31)C2` [Compound 114], the IC50 was 0.22 nM against TXK and 3.31 nM against BTK.

As to `C=CC(=O)N1CC[C@]2(C1)C[C@H](n1c(NC(=O)c3ccc(-c4ccn(C)c(=O)c4)s3)nc3ccccc31)C2` [Compound 109], the figures for the IC50 against TXK and against BTK were 14 nM and 43.5 nM, respectively.

Take `C=CC(=O)N1CC[C@]2(C1)C[C@H](n1c(NC(=O)c3ccc(-c4ccc(=O)[nH]c4)s3)nc3ccccc31)C2` [Compound 99]: the IC50 worked out at 1.01 nM at TXK and 10.2 nM at BTK.

`C=CC(=O)N1CC[C@]2(C1)C[C@H](n1c(NC(=O)c3cnc(C)s3)nc3cc(CN[C@@H](C)C(C)(C)C)ccc31)C2` [Compound 8]: the IC50 on TXK came out at 0.67 nM; at BTK, 2.36 nM.

With `C=CC(=O)N1CC[C@]2(C1)C[C@H](n1c(NC(=O)c3ccc(-c4cnco4)s3)nc3ccc(CN4CCOCC4)cc31)C2` [Compound 77], the IC50 against TXK stood at 0.37 nM; at BTK, 0.78 nM.

As for `C=CC(=O)N1CC[C@]2(C1)C[C@H](n1c(NC(=O)c3ccc(-c4ccnn4C)s3)nc3ccccc31)C2` [Compound 75], the IC50 against TXK amounted to 0.12 nM; at BTK, 1.03 nM.

Take `C=CC(=O)N1CC[C@]2(C1)C[C@H](n1c(NC(=O)c3ccc(-c4cnco4)cc3)nc3cc(CN[C@@H](C)C(C)(C)C)ccc31)C2` [Compound 39]: the IC50 was determined as 0.97 nM at TXK and 5.67 nM against BTK.

For the compound `C#Cc1ccc(C(=O)Nc2nc3ccccc3n2[C@H]2C[C@@]3(CCN(C(=O)C=C)C3)C2)s1` [Compound 107], the values for the IC50 against TXK and at BTK were 5.25 nM and 21.1 nM, respectively.
